In patent publication US20190389841A1, “COMPOUNDS FOR TREATMENT OF TRIPLE NEGATIVE BREAST CANCER AND OVARIAN CANCER” (UNIVERSITY OF TENNESSEE RESEARCH FOUNDATION, priority 2018, published 2019):
Like-named read-outs stand apart in the source and are kept apart here. Blank lines part the entries; values can stand above or below the molecule they belong to.

Legend:
MDA-MB-468 [1] = assay: cells; details: Homo sapiens
[2] = tested on: TNBC spontaneous lung metastasis; assay: Spontaneous lung metastasis in orthotopic TNBC model; assay type: in vivo, mice; details: 12.5 mg/kg
MDA-MB-468 [3] = assay: Colony formation assay; assay type: cell-based, human; details: 8 nM, MDA-MB-468 cells
Procedure: (§1) Colony formation assay. […] The medium of each group was renewed once a week. […] The morphology of colonies was captured under a microscope and colony area was quantified using ImageJ software (NIH, Bethesda, Md.). The drug treatment was performed in triplicate.

MDA-MB-231 = assay: Colony formation assay; assay type: cell-based, human; details: 8 nM
Procedure: as §1

MDA-MB-231 cells [4] = assay: Experimental lung metastasis model (tail vein); details: 10 mg/kg, 22 days of treatment
[5] = tested on: MDA-MB-231 xenograft tumors; assay: H&E and IHC analysis of orthotopic TNBC tumors; assay type: in vivo, NSG mice; details: 12.5 mg/kg
MDA-MB-231 cells [6] = assay: Scratch assay (cell migration); assay type: cell-based, human; details: 16 nM
Procedure: Cell migration was also analyzed by the scratch assay. […] The following day, a scratch was made in the cell monolayer by using a sterile 200-μl pipette tip. […] After 12 h, 24 h and 48 h, the wound width was determined and imaged with Evos Fl Imaging System (Life Technologies, Carlsbad, Calif.). The extent of wound closure was shown as the percentage of decrease of the original scratch width at each measured time point. Experiments were done in triplicate.

[7] = tested on: paclitaxel resistant PC-3 cells; assay: In vitro cytotoxicity after 96 hours; assay type: cell-based
MDA-MB-231 xenografts = assay: Orthotopic TNBC xenograft model, 18 days
Brain penetration = assay type: in vivo
PC-3/TxR tumors = assay: Paclitaxel resistant prostate cancer xenograft; details: in vivo
[8] = after 48 hours, MDA-MB-231 as printed

IC50 (MDA-MB-468 [1]; MDA-MB-468, read-out: IC50 (FIG. 37)): 4.61 nM | IC50 (MDA-MB-468 [1]; MDA-MB-468, read-out: IC50, cell viability): 4.61 nM
Structure (SMILES): CC(=O)O[C@H]1C(=O)[C@@]2(C)[C@H]([C@H](OC(=O)c3ccccc3)[C@]3(O)C[C@H](OC(=O)[C@H](O)[C@@H](NC(=O)c4ccccc4)c4ccccc4)C(C)=C1C3(C)C)[C@]1(OC(C)=O)CO[C@@H]1C[C@@H]2O [paclitaxel]
spontaneous lung metastasis, mice [2]: all eight mice had no metastasis | reductions in colony formation (MDA-MB-468 [3]): 7.4% | relative percentage of colonies (MDA-MB-231): 27.5% | body weights and physical activities of mice (MDA-MB-231 cells [4]): slightly decreased | lung metastasis of TNBC (MDA-MB-231 cells [4]): significantly inhibited lung metastasis | necrotic area of tumors [5]: 41.5% | average migration rate, scratch assay (MDA-MB-231 cells [6]; after 24 hours): 13.3% | average migration rate, scratch assay (MDA-MB-231 cells [6]; [8]): 14.5% | potency in paclitaxel resistant PC-3 cells [7]: lose potency | average final tumor weight (MDA-MB-231 xenografts; 12.5 mg/kg): 0.38 g | body weight during treatment (MDA-MB-231 xenografts; 18 days, paclitaxel 12.5 mg/kg): decreased mice body weight significantly

Kp at 4 h (Brain penetration; brain, 4 h after oral treatment, read-out: Brain/plasma concentration ratio): ~0.2 | Brain/plasma concentration ratios over time (Brain penetration; in vivo): remained relatively constant over time | brain penetration (Brain penetration; in vivo): high brain penetration
Structure (SMILES): COc1cc(C(=O)c2csc(Nc3ccc4[nH]ccc4c3)n2)cc(OC)c1OC [Compound 55, (2-(1H-indol-5-ylamino)thiazol-4-yl)(3,4,5-trimethoxyphenyl)methanone]

Structure (SMILES): COc1cc2c(c(OC)c1OC)-c1ccc(OC)c(=O)cc1[C@@H](NC(C)=O)CC2 [colchicine]
reductions in colony formation (MDA-MB-468 [3]): 51% | average migration rate, scratch assay (MDA-MB-231 cells [6]; after 24 hours): 67.3% | average migration rate, scratch assay (MDA-MB-231 cells [6]; [8]): 15.8%

Structure (SMILES): CC(=O)O[C@@]12CO[C@@H]1C[C@H](O)[C@@]1(C)C(=O)[C@H](O)C3=C(C)[C@@H](OC(=O)[C@H](O)[C@@H](NC(=O)OC(C)(C)C)c4ccccc4)C[C@@](O)([C@@H](OC(=O)c4ccccc4)[C@H]21)C3(C)C [docetaxel]
efficacy in PC-3/TxR tumors (PC-3/TxR tumors): lack of efficacy | potency in paclitaxel resistant PC-3 cells [7]: lose potency
